# Experiments:
# [1] = molecular target: iC9 (pBP220) (Homo sapiens, UniProt P62942, F37V); experiment: SRα-SEAP assay of drug specificity, iC9 switch, 293 cells; details: SRα-SEAP reporter, FIG. 108A
# [2] = test system: SK-N-SH neuroblastoma cells; experiment: Trans-well assay, HLA class I on tumor cells; format: cell-based; details: antigen-independent, FIG. 118B
# Text: FIG. 118: (A) Trans-well assay set-up. (B) Cytokines secreted by transduced T cells in the top well upregulate HLA class I on the surface of SK-N-SH neuroblastoma cells in an antigen-independent, but iMC- and rimiducid-dependent manner.
# iC9 (pBP220), sequence (P62942 2-108 F37V): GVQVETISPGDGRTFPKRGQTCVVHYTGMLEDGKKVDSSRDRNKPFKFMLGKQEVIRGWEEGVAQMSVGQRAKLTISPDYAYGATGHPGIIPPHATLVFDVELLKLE
# iC9 (pBP220), sequence (P55211 135-416 partner limits assumed): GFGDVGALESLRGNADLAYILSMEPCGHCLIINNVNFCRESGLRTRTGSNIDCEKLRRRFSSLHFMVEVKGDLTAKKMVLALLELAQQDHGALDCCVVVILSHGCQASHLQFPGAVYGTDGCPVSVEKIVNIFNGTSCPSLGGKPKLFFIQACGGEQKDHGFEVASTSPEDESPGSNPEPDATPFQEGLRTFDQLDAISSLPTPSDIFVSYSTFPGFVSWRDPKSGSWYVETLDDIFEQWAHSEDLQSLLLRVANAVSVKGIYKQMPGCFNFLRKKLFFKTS
smiles,measurement,setting,value
CC[C@H](C(=O)N1CCCC[C@H]1C(=O)O[C@H](CCc1ccc(OC)c(OC)c1)c1cccc(OCC(=O)NCCNC(=O)COc2cccc([C@@H](CCc3ccc(OC)c(OC)c3)OC(=O)[C@@H]3CCCCN3C(=O)[C@@H](CC)c3cc(OC)c(OC)c(OC)c3)c2)c1)c1cc(OC)c(OC)c(OC)c1 [rimiducid],activation of the iC9 switch,[1],can activate
same,upregulation of HLA class I on the surface of SK-N-SH cells by cytokines of transduced T cells,[2],rimiducid-dependent

# — patent US20230065562A1, “DUAL CONTROLS FOR THERAPEUTIC CELL ACTIVATION OR ELIMINATION” (Bellicum Pharmaceuticals, Inc., priority 2015, published 2023)
